{"source": "patent US6906093B2", "about": "“Indolinone combinatorial libraries and related products and methods for the treatment of disease” (Sugen, Inc., priority 1995, dated 2005)", "key": {"HUV-EC-C cells [1]": {"tested_on": "HUV-EC-C cells", "assay": "HUV-EC-C assay, VEGF-induced [3H]thymidine incorporation", "assay_type": "cell-based, human", "details": "VEGF-stimulated HUV-EC cells, read-out: Mitogenesis in Endothelial Cells, [3H] Thymidine Incorporation, HUV-EC Assay, VEGF", "description": "(§1) Repeat the wash two more times with D-PBS, resuspend the cells in about 1 ml assay medium/15 cm^2 of tissue culture flask.\n(§2) Add cells to 96-well flat-bottom plates at 100 μl/well or 0.8-1.0×10^4 cells/well; incubate ˜24 h at 37° C., 5% CO2.\n(§3) Use the same assay medium as mentioned in day 0, step 2 above. Titrations are made by adding 90 μl/well of drug at 200 μM (4× the final well concentration) to the top well of a particular plate column. Since the stock drug concentration-is usually 20 mM in DMSO, the 200 μM drug concentration contains 2% DMSO.\n(§4) Therefore, diluent made up to 2% DMSO in assay medium (F12K+0.5% fetal bovine serum) is used as diluent for the drug titrations in order to dilute the drug but keep the DMSO concentration constant. Add this diluent to the remaining wells in the column at 60 μl/well. Take 60 μl from the 120 μl of 200 μM drug dilution in the top well of the column and mix with the 60 μl in the second well of the column. Take 60 μl from this well and mix with the 60 μl in the third well of the column, and so on until two-fold titrations-are completed. When the next-to-the-last well is mixed, take 60 μl of the 120 μl in this well and discard it. Leave the last well with 60 μl of DMSO/media diluent as a non-drug-containing control. […] 9 columns of titrated drug, enough for triplicate wells each for 1) VEGF (obtained from Pepro Tech Inc., catalogue no. 100-200, 2) endothelial cell growth factor (ECGF) (also known as acidic fibroblast growth factor, or aFGF) (obtained from Boehringer Mannheim Biochemica, catalogue no. […] ECGF comes as a preparation with sodium heparin.\n(§5) Transfer 50 μl/well of the drug dilutions to the 96-well assay plates containing the 0.8-1.0×10^4 cells/100 μl/well of the HUV-EC-C cells from day 0 and incubate ˜2 h at 37° C., 5% CO2.\n(§6) In triplicate, add 50 μl/well of 80 μg/ml VEGF, 20 ng/ml ECGF, or media control to each drug condition. As with the drugs, the growth factor concentrations are 4× the desired final concentration. Use the assay media from day 0 step 2 to make the concentrations of growth factors.\nFreeze plates overnight at −20° C."}, "HUV-EC-C cells [2]": {"tested_on": "HUV-EC-C cells", "assay": "HUV-EC-C assay, a-FGF (ECGF)-induced [3H]thymidine incorporation", "assay_type": "cell-based, human", "details": "a-FGF-stimulated HUV-EC cells, read-out: Mitogenesis in Endothelial Cells, [3H] Thymidine Incorporation, HUV-EC Assay, a-FGF", "description": "as §1, §2, §3, §4, §5, §6\nFreeze plates overnight at −20° C."}, "EpH4-VEGF": {"tested_on": "EpH4-VEGF", "assay": "FLK-1/Xenograft Model, subcutaneous tumor growth", "assay_type": "in vivo, mice", "protocol": "Assay 2: FLK-1/Xenograft Model.\nThe ability of the compounds of the present invention to inhibit ovarian, melanoma, prostate, lung and mammary tumor cell lines established as SC xenografts was examined. These studies were conducted using doses ranging from 1 to 75 mg/kg/day.\nMaterials And Methods. The tumor cells were implanted subcutaneously into the indicated strains of mice. Treatment was initiated on day 1 post implantation unless otherwise indicated (e.g. treatment of the SCID mouse related to the A375 melanoma cell line began on Day 9). Eight (8) to sixteen (16) mice comprised each test group.\nAnimals. Female athymic mice (BALB/c, nu/nu), BALB/c mice, Wistar rats and Fisher 344 rats were obtained from Simonsen Laboratories (Gilroy, Calif.). Female A/I mice were obtained from Jackson Laboratory (Bar Harbor, Me.). DA rats were obtained from B&K Universal, Inc. (Fremont, Calif.). Athymic R/Nu rats, DBA/2N mice, and BALB/c mice were obtained from Harlan Sprague Dawley (Indianapolis, Ind.). Female C57BL/6 mice were obtained from Taconic (Germantown, N.Y.). […]\nSubcutaneous Xenograft Model. […] Tumor growth was measured over 3 to 6 weeks using venier calipers tumor volumes were calculated as a product of length×width×height unless otherwise indicated. P values were calculated using the Students' t-test. […]"}, "HER2 Kinase": {"biological_target": "T1, HER2 Kinase (Homo sapiens, UniProt P04626)", "T1 construct": "fused on or other part: Candidate partner: EGFR extracellular domain (P00533) in place of HER2's own ectodomain if Assay 1 was used; none if Assay 2 (BT-474) was used", "T1 sequence (P04626 720-987 limits assumed)": "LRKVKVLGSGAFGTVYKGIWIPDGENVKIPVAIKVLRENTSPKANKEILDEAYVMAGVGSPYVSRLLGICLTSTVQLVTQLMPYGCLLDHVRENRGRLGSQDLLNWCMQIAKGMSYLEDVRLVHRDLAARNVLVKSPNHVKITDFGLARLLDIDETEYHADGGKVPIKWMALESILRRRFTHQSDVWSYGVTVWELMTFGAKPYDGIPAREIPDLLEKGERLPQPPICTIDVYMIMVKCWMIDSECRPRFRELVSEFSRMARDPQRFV", "assay": "HER-2 ELISA (whole-cell HER2 kinase activity)", "assay_type": "cell-based", "details": "whole cells", "description": "Assay 1: EGF Receptor-HER2 Chimeric Receptor Assay In Whole Cells. HER2 kinase activity in is whole EGFR-NIH3T3 cells was measured as described below:\nMaterials and Reagents. The following materials and reagents were used to conduct the assay: • a. […] Anti-phosphotyrosine antibody (anti-Ptyr) (polyclonal) (see, Fendley, et al., supra). • d. Detection antibody: Goat anti-rabbit lgG horse radish peroxidase conjugate, TAGO, Inc., Burlingame, Calif. • e. TBST buffer:\nStock reagents of: • EDTA 100 mM pH 7.0 • Na3VO4 0.5 M • Na4(P2O7) 0.2 M\n(§7) Procedure. The following protocol was used:\nCoated plates are good for up to 10 days when stored at 4° C.\nOn day of use, remove coating buffer and replace with 100 μl blocking buffer (5% Carnation Instant Non-Fat Dry Milk in PBS). Incubate the plate, shaking, at room temperature (about 23° C. to 25° C.) for 30 minutes. Just prior to use, remove blocking buffer and wash plate 4 times with TBST buffer.\nAn NIH3T3 cell line overexpressing a chimeric receptor containing the EGFR extracellular domain and extracellular HER2 kinase domain can be used for this assay.\nChoose dishes having 80-90% confluence for the experiment. Trypsinize cells and stop reaction by adding 10% fetal bovine serum. Suspend cells in DMEM medium (10% CS DMEM medium) and centrifuge once at 1500 rpm, at room temperature for 5 minutes.\nResuspend cells in seeding medium (DMEM, 0.5% bovine serum), and count the cells using trypan blue. Viability above 90% is acceptable. Seed cells in DMEM medium (0.5% bovine serum) at a density of 10,000 cells per well, 100 μl per well, in a 96 well microtiter plate. Incubate seeded cells in 5% CO2 at 37° C. for about 40 hours.\nCheck seeded cells for contamination using an inverted microscope. Dilute drug stock (10 mg/ml in DMSO) 1:10 in DMEM medium, then transfer 5 l to a TBST well for a final drug dilution of 1:200 and a final DMSO concentration of 1%. Control wells receive DMSO alone. Incubate in 5% CO2 at 37° C. for two hours.\nPrepare EGF ligand: dilute stock EGF in DMEM so that upon transfer of 10 μl dilute EGF (1:12 dilution), 100 nM final concentration is attained.\nPrepare fresh HNTG* sufficient for 100 μl per well; and place on ice.\nAfter 120 minutes incubation with drug, add prepared SGF ligand to cells, 10 μl per well, to a final concentration of 100 nM. Control wells receive DMEM alone. Incubate, shaking, at room temperature, for 5 minutes.\nRemove drug, EGF, and DMEM. Wash cells twice with PBS. Transfer HNTG* to cells, 100 μl per well. Place on ice for 5 minutes. Meanwhile, remove blocking buffer from other ELISA plate and wash with TBST as described above. […]\nThe maximal phosphotyrosine signal is determined by subtracting the value of the negative controls from the positive controls."}, "FLK-1 receptor": {"biological_target": "T2, FLK-1 receptor (Mus musculus, UniProt P35918)", "T2 construct": "expressed in transfected cells; host or cells: NIH3T3 C7 #3", "T2 sequence (P35918 20-1345)": "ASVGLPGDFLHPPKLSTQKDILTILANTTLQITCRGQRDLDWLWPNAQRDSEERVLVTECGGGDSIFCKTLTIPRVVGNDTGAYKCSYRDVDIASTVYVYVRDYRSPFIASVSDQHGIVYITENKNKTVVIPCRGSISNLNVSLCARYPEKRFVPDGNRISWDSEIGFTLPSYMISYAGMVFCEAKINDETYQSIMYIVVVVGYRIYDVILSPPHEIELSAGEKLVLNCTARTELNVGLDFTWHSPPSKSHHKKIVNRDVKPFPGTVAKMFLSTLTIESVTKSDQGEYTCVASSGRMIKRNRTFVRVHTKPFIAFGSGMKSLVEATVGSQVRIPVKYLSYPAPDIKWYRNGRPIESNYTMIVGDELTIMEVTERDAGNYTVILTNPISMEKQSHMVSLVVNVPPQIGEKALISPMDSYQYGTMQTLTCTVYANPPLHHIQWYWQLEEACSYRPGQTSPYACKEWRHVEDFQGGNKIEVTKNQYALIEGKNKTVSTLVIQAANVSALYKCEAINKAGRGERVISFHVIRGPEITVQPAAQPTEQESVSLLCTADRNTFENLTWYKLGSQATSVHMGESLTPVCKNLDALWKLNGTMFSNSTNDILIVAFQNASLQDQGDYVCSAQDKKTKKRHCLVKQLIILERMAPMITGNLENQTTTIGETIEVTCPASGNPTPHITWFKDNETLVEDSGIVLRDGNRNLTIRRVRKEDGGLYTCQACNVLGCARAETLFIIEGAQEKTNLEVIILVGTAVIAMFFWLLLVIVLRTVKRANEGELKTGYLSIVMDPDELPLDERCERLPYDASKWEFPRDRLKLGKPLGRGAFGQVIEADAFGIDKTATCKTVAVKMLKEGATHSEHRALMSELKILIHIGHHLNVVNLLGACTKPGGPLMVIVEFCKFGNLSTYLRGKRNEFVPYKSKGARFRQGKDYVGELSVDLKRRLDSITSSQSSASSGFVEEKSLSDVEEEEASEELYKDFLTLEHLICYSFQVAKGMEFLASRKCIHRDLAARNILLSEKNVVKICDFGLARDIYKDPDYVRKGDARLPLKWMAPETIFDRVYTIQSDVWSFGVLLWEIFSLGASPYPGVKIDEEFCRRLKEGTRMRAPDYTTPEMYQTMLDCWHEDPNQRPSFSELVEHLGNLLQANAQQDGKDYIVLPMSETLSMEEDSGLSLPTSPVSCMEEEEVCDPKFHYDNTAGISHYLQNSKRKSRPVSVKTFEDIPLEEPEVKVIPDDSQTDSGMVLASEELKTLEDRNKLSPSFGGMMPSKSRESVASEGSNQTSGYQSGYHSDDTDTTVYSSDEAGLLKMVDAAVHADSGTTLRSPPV", "assay": "FLK-1 ELISA in FLK-1/NIH3T3 cells", "assay_type": "cell-based", "details": "ELISA, FLK-1/NIH3T3 cells, VEGF stimulated"}, "PDGFR": {"tested_on": "PDGFR", "assay": "PDGF-R ELISA (receptor phosphotyrosine in whole cells)", "assay_type": "cell-based", "details": "U1242 cells", "description": "All cell culture media, glutamine, and fetal bovine serum were purchased from Gibco Life Technologies (Grand Island, N.Y.) unless otherwise specified. […] All cell lines were routinely subcultured twice a week and were negative for mycoplasma as determined by the Mycotect method (Gibco).\nFor ELISA assays, cells (U1242, obtained from Joseph Schlessinger, NYU) were grown to 80-90% confluency in growth medium (MEM with 10% FBS, NEAA, 1 mM NaPyr and 2 mM GLN) and seeded in 96-well tissue culture plates in 0.5% serum at 25,000 to 30,000 cells per well. After overnight incubation in 0.5% serum-containing medium, cells were changed to serum-free medium and treated with test compound for 2 hr in a 5% CO2, 37° C. incubator. […] Lysates were incubated with shaking for 1 hour at room temperature. The plates were washed with TBST four times and then incubated with polyclonal anti-phosphotyrosine antibody at room temperature for 30 minutes. Excess anti-phosphotyrosine antibody was removed by rinsing the plate with TBST four times. Goat anti-rabbit IgG antibody was added to the ELISA plate for 30 min at room temperature followed by rinsing with TBST four more times. […] Absorbance at 410 nm with a reference wavelength of 630 nm was recorded about 15 to 30 min after ABTS addition."}, "[3]": {"tested_on": "3T3/PDGFR + PDGF (T) cells", "assay": "3T3/PDGF-βR/PDGF-BB(T) Cell Growth SRB Assay", "assay_type": "cell-based", "details": "NIH 3T3 cells expressing PDGF-βR and PDGF-ββ, tumor-derived; read-out: Cell Growth Assay, SRB Readout, 3T3/PDGFR + PDGF (T) IC50", "description": "Assay 3: 3T3/PDGF-βR/PDGF-BB(T) Cell Growth SRB Assay\nThis part of assay is carried out in a laminar flow hood.\nTrypsinize cells as usual. Transfer 200 μl of cell suspension to 10 ml of isotone. Count cells on the Coulter Counter.\nDilute cells in growth medium to 60,000 cells/ml. Transfer 100 μl of cells to each well in a 96-well flat bottom plate to give 6000 cells/well.\nGently shake plates to allow for uniform attachment of the cells to the plate.\nIncubate the plates at 37° C. in a 10% CO2 incubator.\nDay 1: Addition of Compound: same as for Assay 1.\nDay 5: Development of Assay: same as for Assay 1."}, "EGF Receptor": {"biological_target": "T3, EGF Receptor (Homo sapiens, UniProt P00533)", "T3 construct": "expressed in transfected cells; host or cells: NIH 3T3/C7 (3T3/EGFRc7)", "T3 sequence (P00533 25-1210)": "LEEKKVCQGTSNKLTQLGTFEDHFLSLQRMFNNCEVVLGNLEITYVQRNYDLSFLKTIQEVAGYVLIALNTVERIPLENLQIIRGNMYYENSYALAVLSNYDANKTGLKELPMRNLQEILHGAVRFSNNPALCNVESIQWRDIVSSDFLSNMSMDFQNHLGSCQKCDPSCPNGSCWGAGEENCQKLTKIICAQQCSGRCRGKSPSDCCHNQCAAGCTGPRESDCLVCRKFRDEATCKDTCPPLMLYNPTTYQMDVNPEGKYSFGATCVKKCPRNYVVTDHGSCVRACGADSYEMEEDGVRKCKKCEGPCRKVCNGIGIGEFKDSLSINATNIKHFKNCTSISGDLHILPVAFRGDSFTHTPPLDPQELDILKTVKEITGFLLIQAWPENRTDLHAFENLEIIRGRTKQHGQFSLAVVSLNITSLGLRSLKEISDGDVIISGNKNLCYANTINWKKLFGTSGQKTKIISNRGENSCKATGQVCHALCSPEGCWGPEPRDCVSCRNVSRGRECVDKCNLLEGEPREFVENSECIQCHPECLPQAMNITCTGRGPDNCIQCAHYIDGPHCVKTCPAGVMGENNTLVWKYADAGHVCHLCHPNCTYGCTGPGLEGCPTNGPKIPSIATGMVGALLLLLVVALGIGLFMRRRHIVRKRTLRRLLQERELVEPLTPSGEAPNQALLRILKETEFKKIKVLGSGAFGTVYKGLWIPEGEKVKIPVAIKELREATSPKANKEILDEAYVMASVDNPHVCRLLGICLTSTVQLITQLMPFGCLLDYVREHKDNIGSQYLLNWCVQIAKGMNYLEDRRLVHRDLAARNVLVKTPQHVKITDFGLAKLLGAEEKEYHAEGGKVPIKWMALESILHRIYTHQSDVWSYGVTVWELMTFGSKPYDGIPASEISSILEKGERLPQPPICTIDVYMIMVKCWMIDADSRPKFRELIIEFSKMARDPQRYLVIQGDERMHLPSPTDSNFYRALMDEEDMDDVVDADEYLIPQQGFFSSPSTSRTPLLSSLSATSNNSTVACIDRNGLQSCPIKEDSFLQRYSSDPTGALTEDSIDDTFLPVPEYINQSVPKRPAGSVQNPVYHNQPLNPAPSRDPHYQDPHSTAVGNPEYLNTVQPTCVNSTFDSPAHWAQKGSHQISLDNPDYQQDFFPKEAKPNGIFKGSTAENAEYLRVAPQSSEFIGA", "assay": "EGF Receptor ELISA (EGFR-NIH3T3 assay)", "assay_type": "cell-based", "details": "EGFR-NIH3T3 whole cells", "description": "EGF Receptor kinase activity (EGFR-NIH3T3 assay) in whole cells was measured as described below:\nMaterials and Reagents. The following materials and reagents were used • a. […] Anti-phosphotyosine antibody (anti-Ptyr) (polyclonal). • d. Detection antibody: Goat anti-rabbit lgG horse radish peroxidase conjugate, TAGO, Inc., Burlingame, Calif. • e. TBST buffer:\n• Keep solution in dark at 4° C. until used. • h. Stock reagents of: • EDTA 100 mM pH 7.0 • Na3VO4 0.5 M • Na4(P2O7) 0.2 M\nas §7\n1. […] Coated plates are good for up to 10 days when stored at 4° C.\n2. On day of use, remove coating buffer and replace with blocking buffer (5% Carnation Instant NonFat Dry Milk in PBS). Incubate the plate, shaking, at room temperature (about 23° C. to 25° C.) for 30 minutes. Just prior to use, remove blocking buffer and wash plate 4 times with TBST buffer.\n2. Choose dishes having 80-90% confluence for the experiment. Trypsinize cells and stop reaction by adding. 10% CS DMEM medium. Suspend cells in DMEM medium (10% CS DMEM medium) and centrifuge once at 1000 rpm, and once at room temperature for 5 minutes.\n3. Resuspend cells in seeding medium (DMEM, 0.5% bovine serum), and count the cells using trypan blue. Viability above 90% is acceptable. Seed cells in DMEM medium (0.5% bovine serum) at a density of 10,000 cells per well, 100 μl per well, in a 96 well microtiter plate. Incubate seeded cells in 5% CO2 at 37° C. for about 40 hours.\n1. Check seeded cells for contamination using an inverted microscope. Dilute drug stock (10 mg/ml in DMSO) 1:10 in DMEM medium, then transfer 5 μl to a test well for a final drug dilution of 1:200 and a final DMSO concentration of 1%. Control wells receive DMSO alone. Incubate in 5% CO2 at 37° C. for one hour.\n5. […] Control wells receive. DMEM alone. […]\nThe maximal phosphotyrosine signal is determined by subtracting the value of the negative controls from the positive controls. The percent inhibition of phosphotyrosine content for extract-containing wells is then calculated, after subtraction of the negative controls."}, "EGFR": {"biological_target": "T4, EGFR (Homo sapiens, UniProt P00533)", "T4 construct": "expressed in transfected cells; host or cells: NIH 3T3/C7 (3T3/EGFRc7)", "T4 sequence (P00533 25-1210)": "as above", "assay": "EGF-Induced BrdU Incorporation Assay in 3T3/EGFR cells", "assay_type": "cell-based", "details": "EGF ligand; read-out: Mitogenesis in 3T3/EGFR Cells, BrdU Incorporation, EGFR EGF Ligand IC50", "description": "Assay 2: EGF-Induced BrdU Incorporation Assay\nProtocol • (1) 3T3 engineered cell line: 3T3/EGFRc7 • (2) Cells are seeded at 8000 cells/well in 10% CS, 2 mM Gln in DMEM, in a 96 well plate. […] The negative control wells receive serum free DMEM with 0.1% BSA only; the positive control cells receive the ligand (EGF) but no test compound. […] FixDenat solution is added (50 μl/well) and the plates are incubated at room temperature for 45 minutes on a plate shaker. • (7) The FixDenat solution is thoroughly removed by decanting and tapping the inverted plate on a paper towel. Milk is added (5% dehydrated milk in PBS, 200 μl/well) as a blocking solution and the plate is incubated for 30 minutes at room temperature on a plate shaker. • (8) The blocking solution is removed by decanting and the wells are washed once with PBS. Anti-BrdU-POD solution (1:100 dilution in PBS, 1% BSA) is added (100 μl/well) and the plate is incubated for 90 minutes at room temperature on a plate shaker. • (9) The antibody conjugate is thoroughly removed by decanting and rinsing the wells 5 times with PBS, and the plate is dried by inverting and tapping on a paper towel. • (10) TMB substrate solution is added (100 μl/well) and incubated for 20 minutes at room temperature on a plate shaker until color development is sufficient for photometric detection. • (11) The absorbance of the samples are measured at 410 nm (in “dual wavelength” mode with a filter reading at 490 nm, as a reference wavelength) on a Dynatech ELISA plate reader."}}}
{"smiles": "COc1ccc(Br)cc1C=C1C(=O)Nc2ccccc21", "note": "[SU4796, 3-(3-bromo-6-methoxybenzylidenyl)-2-indolinone]", "values": [{"measurement": "IC50", "setting": "HUV-EC-C cells [1]", "value": 30.7, "unit": "µM"}, {"measurement": "IC50", "setting": "HUV-EC-C cells [2]", "value": 35.8, "unit": "µM"}]}
{"smiles": "O=C1Nc2ccccc2C1=Cc1ccc(Br)cc1", "note": "[SU4942, 3-(4-Bromobenzylidenyl)-2-indolinone]", "values": [{"measurement": "IC50", "setting": "HUV-EC-C cells [2]", "value": 4.6, "unit": "µM"}, {"measurement": "EpH4-VEGF % inhibition @ mg/kg", "setting": "EpH4-VEGF; @ 25 mg/kg", "value": 47, "unit": "% @ 25"}, {"measurement": "EpH4-VEGF % inhibition @ mg/kg", "setting": "EpH4-VEGF; @ 50 mg/kg", "value": 46, "unit": "% @ 50"}]}
{"smiles": "COc1ccccc1C=C1C(=O)Nc2ccccc21", "note": "[SU4949, 3-(2-Methoxybenzylidenyl)-2-indolinone]", "values": [{"measurement": "IC50", "setting": "HUV-EC-C cells [1]", "value": 3.4, "unit": "µM"}, {"measurement": "IC50", "setting": "HUV-EC-C cells [2]", "value": 3.7, "unit": "µM"}]}
{"smiles": "CN1C(=O)C(=Cc2ccc(Br)cc2)c2ccccc21", "note": "[SU4956, 3-(4-Bromobenzylidenyl)-1-methyl-2-indolinone]", "values": [{"measurement": "IC50", "setting": "HER2 Kinase", "value": 22.5, "unit": "µM"}]}
{"smiles": "CN1C(=O)C(=Cc2ccc(N3CCOCC3)cc2)c2ccccc21", "note": "[SU4982, 1-Methyl-3-[4-(morpholin-4-yl)benzylidenyl]-2-indolinone]", "values": [{"measurement": "IC50", "setting": "FLK-1 receptor", "value": 21.6, "unit": "µM"}, {"measurement": "IC50", "setting": "HER2 Kinase", "value": 39.4, "unit": "µM"}]}
{"smiles": "O=CN1CCN(c2ccc(C=C3C(=O)Nc4ccccc43)cc2)CC1", "note": "[SU4984, 3-[4-(4-Formylpiperazin-1-yl)benzylidenyl]-2-indolinone]", "values": [{"measurement": "IC50", "setting": "PDGFR", "value": 5.8, "unit": "µM"}, {"measurement": "IC50", "setting": "FLK-1 receptor", "value": 1.6, "unit": "µM"}, {"measurement": "IC50", "setting": "HER2 Kinase", "value": 90.2, "unit": "µM"}, {"measurement": "IC50", "setting": "HUV-EC-C cells [1]", "value": 0.8, "unit": "µM"}, {"measurement": "IC50", "setting": "HUV-EC-C cells [2]", "value": 25.8, "unit": "µM"}, {"measurement": "IC50", "setting": "[3]", "value": 22.2, "unit": "µM"}]}
{"smiles": "O=C1Nc2ccccc2C1=Cc1ccc(Cl)c(Cl)c1", "note": "[SU5201, 3-(3,4-Dichlorobenzylidenyl)-2-indolinone]", "values": [{"measurement": "IC50", "setting": "HUV-EC-C cells [1]", "value": 2.5, "unit": "µM"}, {"measurement": "IC50", "setting": "HUV-EC-C cells [2]", "value": 2.3, "unit": "µM"}]}
{"smiles": "COc1ccccc1C=C1C(=O)Nc2ccccc21", "note": "[SU5214, 3-(2-Methoxybenzylidenyl)-2-indolinone]", "values": [{"measurement": "IC50", "setting": "FLK-1 receptor", "value": 14.8, "unit": "µM"}, {"measurement": "IC50", "setting": "EGF Receptor", "value": 36.7, "unit": "µM"}]}
{"smiles": "O=C1Nc2ccccc2C1=Cc1ccc(-c2cc(C(F)(F)F)cc(C(F)(F)F)c2)o1", "note": "[SU5217]", "values": [{"measurement": "IC50", "setting": "HUV-EC-C cells [1]", "value": 9.6, "unit": "µM"}, {"measurement": "IC50", "setting": "HUV-EC-C cells [2]", "value": 10.5, "unit": "µM"}]}
{"smiles": "CN(C)c1c(C=C2C(=O)Nc3ccccc32)cc(C=C2C(=O)Nc3ccccc32)c(N(C)C)c1C#N", "note": "[SU5218, 2,6-Di-(dimethylamino)-3,5-di-[(indolin-2-one-3-ylidenyl)methyl]-phenylcyanide]", "values": [{"measurement": "IC50", "setting": "FLK-1 receptor", "value": 6.4, "unit": "µM"}, {"measurement": "IC50", "setting": "HUV-EC-C cells [1]; Homo sapiens, HUVEC", "value": 2.4, "unit": "µM"}, {"measurement": "IC50", "setting": "HUV-EC-C cells [2]; Homo sapiens, HUVEC", "value": 2.7, "unit": "µM"}]}
{"smiles": "O=C1Nc2ccccc2C1=Cc1ccc(I)o1", "note": "[SU5409]", "values": [{"measurement": "IC50", "setting": "HUV-EC-C cells [1]", "value": 26, "unit": "µM"}]}
{"smiles": "O=C1Nc2ccccc2C1=Cc1ccc(N2CCCCC2)cc1", "note": "[SU5450, 3-[4-(Piperidin-1-yl)benzylidenyl]-2-indolinone]", "values": [{"measurement": "IC50", "setting": "FLK-1 receptor", "value": 4.5, "unit": "µM"}, {"measurement": "IC50", "setting": "HER2 Kinase", "value": 92.6, "unit": "µM"}]}
{"smiles": "CCc1ccc(C=C2C(=O)Nc3ccccc32)s1", "note": "[SU5451, 3-[(2-Ethylthien-5-yl)methylene]-2-indolinone]", "values": [{"measurement": "IC50", "setting": "FLK-1 receptor", "value": 3.4, "unit": "µM"}, {"measurement": "IC50", "setting": "EGF Receptor", "value": 44, "unit": "µM"}]}
{"smiles": "O=C1Nc2ccccc2C1=Cc1cccn1-c1ccc(Cl)cc1", "note": "[SU5462]", "values": [{"measurement": "IC50", "setting": "HUV-EC-C cells [1]", "value": 0.5, "unit": "µM"}, {"measurement": "IC50", "setting": "HUV-EC-C cells [2]", "value": 0.8, "unit": "µM"}]}
{"smiles": "Cn1cccc1C=C1C(=O)Nc2ccccc21", "note": "[SU5464, 3-[(1-Methylpyrrol-2-yl)methylene]-2-indolinone]", "values": [{"measurement": "IC50", "setting": "FLK-1 receptor", "value": 20.3, "unit": "µM"}, {"measurement": "IC50", "setting": "EGFR", "value": 95, "unit": "µM"}]}
{"smiles": "O=C1Nc2ccccc2C1=Cc1ccc(N2CCCC2)cc1", "note": "[SU5466, 3-[4-(Pyrrolidin-1-yl)benzylidenyl]-2-indolinone]", "values": [{"measurement": "IC50", "setting": "FLK-1 receptor", "value": 1.6, "unit": "µM"}, {"measurement": "IC50", "setting": "EGFR", "value": 17, "unit": "µM"}]}
{"smiles": "O=C1Nc2ccccc2C1=Cc1cnc[nH]1", "note": "[SU5473, 3-[(Imidazol-4-yl)methylene]-2-indolinone]", "values": [{"measurement": "IC50", "setting": "FLK-1 receptor", "value": 1.5, "unit": "µM"}, {"measurement": "IC50", "setting": "HUV-EC-C cells [1]; Homo sapiens, HUVEC", "value": 1.2, "unit": "µM"}, {"measurement": "IC50", "setting": "HUV-EC-C cells [2]; Homo sapiens, HUVEC", "value": 14.1, "unit": "µM"}, {"measurement": "IC50", "setting": "EGFR", "value": 54, "unit": "µM"}]}
{"smiles": "COc1ccc(C=C2C(=O)Nc3ccccc32)c(Cl)c1", "note": "[SU5480, 3-[2-Chloro-4-methoxybenzylidenyl]-2-indolinone]", "values": [{"measurement": "IC50", "setting": "FLK-1 receptor", "value": 5.3, "unit": "µM"}, {"measurement": "IC50", "setting": "EGF Receptor", "value": 39.6, "unit": "µM"}]}
